Results from ChEMBL document CHEMBL1152179, “Semi-synthesis and biological activity of gamma-lactones analogs of camptothecin” (Bioorg Med Chem Lett, 2008).
Calls of active or inactive are those of the source. The calls are words filed in the database; no cut-off is given here.

Tests used:
Format in all cases: functional, cell-based
A549 [1] = assay: Cytotoxicity against human A549 cells upto 100 uM by SRB method
HT-29 [2] = assay: Cytotoxicity against human HT-29 cells upto 100 uM by SRB method
A549 [3] = assay: Cytotoxicity against human A549 cells by SRB method
HT-29 [4] = assay: Cytotoxicity against human HT-29 cells by SRB method

Structure (SMILES) | Activity (A549 [1]) | Activity (HT-29 [2]) | IC50 (A549 [3]) | IC50 (HT-29 [4])
CCCCNC(=O)[C@]1(CC)OC(=O)c2c1cc1n(c2=O)Cc2c-1nc1ccccc1c2CC | inactive | inactive | – | –
CC[C@@]1(C(=O)NCCN2CCOCC2)OC(=O)c2c1cc1n(c2=O)Cc2c-1nc1ccccc1c2C1CCCC1 | inactive | inactive | – | –
CC[C@@]1(C(=O)NCCN2CCOCC2)OC(=O)c2c1cc1n(c2=O)Cc2cc3ccccc3nc2-1 | – | – | 25.6 µM | 39.9 µM
CCCCNC(=O)[C@]1(CC)OC(=O)c2c1cc1n(c2=O)Cc2cc3ccccc3nc2-1 | – | – | 70.1 µM | 68.3 µM
CC[C@@]1(C(=O)NCCN2CCSCC2)OC(=O)c2c1cc1n(c2=O)Cc2cc3ccccc3nc2-1 | inactive | inactive | – | –
CC[C@@]1(C(=O)NCCCO)OC(=O)c2c1cc1n(c2=O)Cc2cc3ccccc3nc2-1 | inactive | inactive | – | –
CC[C@@]1(C(=O)NCCN2CCCCC2)OC(=O)c2c1cc1n(c2=O)Cc2cc3ccccc3nc2-1 | – | – | 74.9 µM | 31.6 µM
CC[C@@]1(C(=O)NCCN2CCN(C)CC2)OC(=O)c2c1cc1n(c2=O)Cc2cc3ccccc3nc2-1 | – | – | 53.1 µM | 7.25 µM
CCc1c2c(nc3ccc(O)cc13)-c1cc3c(c(=O)n1C2)COC(=O)[C@]3(O)CC [7-ETHYL-10-HYDROXYCAMPTOTHECIN] | – | – | 0.08 µM | 0.12 µM
CC[C@@]1(C(=O)NCCN2CCOCC2)OC(=O)c2c1cc1n(c2=O)Cc2c-1nc1ccccc1c2C1CCCCC1 | inactive | inactive | – | –
CC[C@@]1(C(=O)NCCN2CCOCC2)OC(=O)c2c1cc1n(c2=O)Cc2c-1nc1ccc(OC)cc1c2C1CCCC1 | – | – | 96.5 µM | 62.9 µM
CCN(CC)CCNC(=O)[C@]1(CC)OC(=O)c2c1cc1n(c2=O)Cc2cc3ccccc3nc2-1 | – | – | 65.3 µM | 31.6 µM
CC[C@@]1(C(=O)NCCO)OC(=O)c2c1cc1n(c2=O)Cc2cc3ccccc3nc2-1 | inactive | inactive | – | –
CC[C@@]1(C(N)=O)OC(=O)c2c1cc1n(c2=O)Cc2cc3ccccc3nc2-1 | inactive | inactive | – | –
CC[C@@]1(C(=O)NCCN2CCCC2)OC(=O)c2c1cc1n(c2=O)Cc2cc3ccccc3nc2-1 | – | – | 94.3 µM | 31.6 µM
CC[C@@]1(C(=O)NCCN2CCOCC2)OC(=O)c2c1cc1n(c2=O)Cc2c-1nc1ccccc1c2C(=O)C1CC1 | inactive | inactive | – | –
CC[C@@]1(O)C(=O)OCc2c1cc1n(c2=O)Cc2cc3c(CN(C)C)c(O)ccc3nc2-1 [TOPOTECAN] | – | – | 0.48 µM | 0.375 µM
CCc1c2c(nc3ccc(OC)cc13)-c1cc3c(c(=O)n1C2)C(=O)O[C@@]3(CC)C(=O)NCCN1CCOCC1 | inactive | inactive | – | –
